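A five-concentration, 48-hour dose response in 96-well plates underlies each endpoint, interpolated linearly between surrounding concentrations. At the GI50, growth is halved. TGI denotes the concentration required for complete inhibition of growth.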
Tests used:
Assay in all cases: NCI-60 cell line screen, 48 h
RPMI-8226 leukemia = system: RPMI-8226 leukemia
UACC-62 melanoma = system: UACC-62 melanoma
HCT-15 colon = system: HCT-15 colon
SF-539 CNS = system: SF-539 CNS
MALME-3M melanoma = system: MALME-3M melanoma
HL-60(TB) leukemia = system: HL-60(TB) leukemia
NCI-H460 lung = system: NCI-H460 lung
ACHN renal = system: ACHN renal
SR leukemia = system: SR leukemia
MOLT-4 leukemia = system: MOLT-4 leukemia
BT-549 breast = system: BT-549 breast

Compound | TGI (RPMI-8226 leukemia) | TGI (UACC-62 melanoma) | TGI (HCT-15 colon) | TGI (SF-539 CNS) | TGI (MALME-3M melanoma) | TGI (HL-60(TB) leukemia) | TGI (NCI-H460 lung) | GI50 (RPMI-8226 leukemia) | GI50 (SF-539 CNS) | GI50 (ACHN renal) | TGI (ACHN renal) | TGI (SR leukemia) | TGI (MOLT-4 leukemia) | TGI (BT-549 breast)
Cc1ccc2nc3c(C(=O)NCCN(C)C)cccc3cc2c1 | 7.12 µM | 6.77 µM | 4.91 µM | 10.1 µM | 4.58 µM | 3.72 µM | 2.36 µM | – | – | – | – | – | – | –
CSc1ccc2c(c1)c(CCN)c(C)n2Cc1ccc(Cl)c(Cl)c1 | 4.66 µM | – | – | 3.04 µM | – | – | – | 2.14 µM | 1.6 µM | 1.59 µM | 3.08 µM | – | – | –
O=C(NC(=O)c1cn(CCN2CCNCC2)c(=O)[nH]c1=O)OCc1ccccc1 | > 100 µM | > 100 µM | > 100 µM | > 100 µM | > 100 µM | > 100 µM | > 100 µM | – | – | – | > 100 µM | > 100 µM | > 100 µM | –
C#CCNC(=O)CCC(N)C(=O)O (centres undefined) | > 100 µM | > 100 µM | > 100 µM | > 100 µM | > 100 µM | > 100 µM | > 100 µM | – | – | – | – | – | > 100 µM | –
CSC1=N/C(=C\c2cccs2)C(=O)N1CN1CCOCC1 | > 100 µM | > 100 µM | > 100 µM | – | > 100 µM | > 100 µM | – | – | – | – | > 100 µM | > 100 µM | > 100 µM | –
COC1/C=C\C=C(/C)C(=O)NC2=CC(=O)C=C(C2=O)C(OC)C(C)CC(OC)C(OC)C(C)/C=C(/C)C1OC(N)=O (centres undefined) | 12.1 µM | 15.7 µM | 15.4 µM | 20.4 µM | 0.826 µM | 0.554 µM | 27.2 µM | – | – | – | – | – | 1.25 µM | –
O=C(CSc1nc2ccc(I)cc2c(=O)n1Cc1ccccc1)N/N=C/c1ccccc1 | > 100 µM | > 100 µM | > 100 µM | > 100 µM | – | > 100 µM | > 100 µM | – | – | – | > 100 µM | > 100 µM | > 100 µM | –
Nc1[nH]c(=O)nc2sc3c(c12)CCCC3 | > 100 µM | > 100 µM | > 100 µM | > 100 µM | > 100 µM | > 100 µM | > 100 µM | – | – | – | > 100 µM | > 100 µM | > 100 µM | –
CN(C)C(=S)Nc1nnc(NC23CC4CC(CC(C4)C2)C3)s1 | 51.1 µM | 32.6 µM | 28.8 µM | – | 53.3 µM | 31.9 µM | 26.8 µM | – | – | – | 64 µM | 57.9 µM | > 100 µM | –
NCCCNCCSSCc1ccccc1CSSCCNCCCN | > 100 µM | > 100 µM | > 100 µM | > 100 µM | > 100 µM | 29.8 µM | > 100 µM | – | – | – | > 100 µM | – | > 100 µM | –
OC(c1cc(C(O)(C(F)(F)F)C(F)(F)F)ncn1)(C(F)(F)F)C(F)(F)F | > 10 µM | > 10 µM | > 10 µM | > 10 µM | > 10 µM | > 10 µM | > 10 µM | – | – | – | > 10 µM | > 10 µM | > 10 µM | –
NNC(N)=Nc1cccc2ccccc12 | > 100 µM | > 100 µM | > 100 µM | > 100 µM | > 100 µM | > 100 µM | > 100 µM | – | – | – | > 100 µM | > 100 µM | > 100 µM | –
Nn1c(CNc2ccc(-c3nnc(Nc4ccc(Cl)cc4)n3N)cc2)nnc1Nc1ccc(Cl)cc1 | > 100 µM | > 100 µM | > 100 µM | – | > 100 µM | – | > 100 µM | – | – | – | > 100 µM | – | > 100 µM | > 100 µM
CC(/C=C/c1ncccc1OCCCCCC(=O)O)=N\NC1=NCCN1 | > 100 µM | > 100 µM | > 100 µM | > 100 µM | > 100 µM | > 100 µM | > 100 µM | – | – | – | > 100 µM | > 100 µM | > 100 µM | –
CCCCCCc1nn2c(-c3ccc(C)cc3)nnc2s1 | > 100 µM | > 100 µM | > 100 µM | > 100 µM | – | – | > 100 µM | – | – | – | > 100 µM | – | > 100 µM | > 100 µM
COc1cc(N=C(N)N=C(N)N)c2ncccc2c1 | – | > 100 µM | > 100 µM | > 100 µM | > 100 µM | – | > 100 µM | – | – | – | > 100 µM | – | – | > 100 µM
CN(C)c1nc(N(C)C)nc(N(C)CN(C)c2ccccc2)n1 | – | > 100 µM | > 100 µM | > 100 µM | > 100 µM | > 100 µM | > 100 µM | – | – | – | > 100 µM | – | > 100 µM | –
COc1cc(Cn2c3c(c4c(CN(C)C)c(O)ccc42)C(=O)c2ccccc2C3=O)cc(OC)c1 | 41.5 µM | 51.9 µM | 28.2 µM | 29.8 µM | 76.2 µM | > 100 µM | 32.3 µM | – | – | – | 29.6 µM | 36.5 µM | 88.9 µM | –
CC1=CC(c2ccccc2)OP1(=O)c1ccccc1 (centres undefined) | – | > 100 µM | > 100 µM | > 100 µM | > 100 µM | > 100 µM | > 100 µM | – | – | – | > 100 µM | > 100 µM | – | –
COCCO | > 100 µM | > 100 µM | > 100 µM | > 100 µM | > 100 µM | > 100 µM | > 100 µM | – | – | – | – | – | > 100 µM | –
C=CCn1c2ccccc2c2c(C)c3cnccc3c(C)c21 | 29.5 µM | 41.2 µM | > 95.5 µM | 44.5 µM | 62 µM | 11.9 µM | 37.8 µM | – | – | – | – | – | 9.82 µM | –

Reference: PubChem BioAssay (NCI)
